Patent publication US4584187A, “Imaging agent and method of use” (priority 1981, dated 1986)
Read-outs that look alike come from different tables or passages of the source.

Legend:
[1] = set-up: species or system Rhesus Monkeys; conditions: rhesus monkey, in vivo, iv, 180 min
Method: (§1) Biological tissue distribution studies were performed on rats, dogs and monkeys injected intravenously with 25 μCi and 100 μCi respectively of I-125 iodobenzylguanidine in an average volume of 0.3 ml, 2 ml, and 1 ml respectively. Representative samples of tissues were counted in an autogamma counter with corrections made for radioactive decay, background, and counter efficiency. To normalize for differences in animal weights, tissue concentrations are expressed as percent kilogram dose per gram.

[2] = Biological tissue distribution of I-125 iodobenzylguanidine in dogs; assay type: in vivo, Female Mongrel Dogs
Method: as §1

[3] = set-up: species or system rats; conditions: rat, in vivo, iv, 30 min
Method: as §1

[4] = Stability of radiolabeled compound on storage in solution; assay type: physicochemical; conditions: 4° C., dark
Excerpt: The radiochemical purity was greater than 98% as determined by thin-layer chromotography on silica gel G using two solvent systems: (1) 1/l ethyl acetate: ethanol (Rf=0.0; Rf of free radioiodide=0.60); (2) 3/l n-propanol: 10% ammonium hydroxide (Rf=0.15, Rf of free radioiodide=0.75, Rf of meta-iodobenzylamine=0.35). […] Final […].

Pheochromocytomas (PHEO) = test: Scintigraphic localization of pheochromocytomas with I-131-mIBG in patients and controls; assay type: in vivo, human
Method: Pheochromocytomas (PHEO) were localized with I-131-meta-iodobenzylguanidine(^131 I-mIBG). Five hypertensive patients without PHEO served as controls. I-131-mIBG, 0.5 mCi, was given i.v. Images of areas of interest were made at 24, 48 and 72 hours post-injection. Adrenal (tumor) uptake was estimated with a semioperator-independent computer algorithm. All patients with sporadic PHEO gave clinical and hormonal evidence of their disease.

adrenal medulla = test: MIBG adrenal imaging in MEN-2 patients; assay type: in vivo, human; conditions: for MIBG Adrenal Imaging: 1 and 2 days
Method: To display adrenal medullary abnormalities, 500 μCi of ^131 I-mIBG was injected into 6 patients from 5 families with MEN-2 and scintiscans were performed 1 and 2 days later. Percent administered dose uptake was calculated using a semioperator independent algorithm. Adrenal medullary function was assessed by plasma norepinephrine (N) and epinephrine (E) and urinary N, E, metanephrine (M), and normetanephrine (NM) levels.

[5] = system: adrenergic neurons of the heart and chromaffin granules of the adrenal medulla; test: Localization in adrenergic tissues; assay type: in vivo

In the case of `N=C(N)NCc1cccc([125I])c1` [I-125 iodobenzylguanidine], the “Tissue concentration, Adrenal Cortex (Mean ± S.E.M.)” value (“Tissue concentration, Adrenal Cortex” below) [1] is reported as 0.42 ± .12 % Kg Dose/g, the “Tissue concentration, Adrenal Medullae (Mean ± S.E.M.)” value [1] is reported as 2.69 ± .28 % Kg Dose/g and the “Tissue concentration, Blood (Mean ± S.E.M.)” value (shortened to “Tissue concentration, Blood”) [1] is reported as 0.02 ± .00 % Kg Dose/g. The “Tissue concentration, Heart (Mean ± S.E.M.)” value (shortened to “Tissue concentration, Heart”) [1] was 0.64 ± .03 % Kg Dose/g, the “Tissue concentration, Liver (Mean ± S.E.M.)” value (shortened to “Tissue concentration, Liver”) [1] was 0.76 ± .03 % Kg Dose/g and the “Tissue concentration, Lung (Mean ± S.E.M.)” value (shortened to “Tissue concentration, Lung”) [1] was 0.17 ± .00 % Kg Dose/g. The “Tissue concentration, Muscle (Mean ± S.E.M.)” value (from here on “Tissue concentration, Muscle”) [1] was 0.02 ± .00 % Kg Dose/g, the “Tissue concentration, Liver” value ([2]; dog, in vivo, iv, 30 min) was 0.34 ± .03 % Kg Dose/g and the “Tissue concentration, Lung” value ([2]; dog, in vivo, iv, 30 min) was 0.22 ± .06 % Kg Dose/g. For the same molecule, the “Tissue concentration, Muscle” value ([2]; dog, in vivo, iv, 30 min) was 0.02 ± .00 % Kg Dose/g, the “Tissue concentration, Thyroid (Mean ± S.E.M.)” value (shortened to “Tissue concentration, Thyroid”) ([2]; dog, in vivo, iv, 30 min) was 0.56 ± .07 % Kg Dose/g and the “Tissue concentration, Adrenal Cortex” value ([2]; dog, in vivo, iv, 120 min) was 0.39 ± .05 % Kg Dose/g. For the same molecule, the “Tissue concentration, Adrenal Medulla (Mean ± S.E.M.)” value ([2]; dog, in vivo, iv, 120 min) was 6.29 ± .25 % Kg Dose/g, the “Tissue concentration, Blood” value ([2]; dog, in vivo, iv, 120 min) was 0.02 ± .00 % Kg Dose/g and the “Tissue concentration, Heart” value ([2]; dog, in vivo, iv, 120 min) was 0.50 ± .10 % Kg Dose/g. The “Tissue concentration, Liver” value ([2]; dog, in vivo, iv, 120 min) was “.017 ± .05 % Kg Dose/g”, the “Tissue concentration, Lung” value ([2]; dog, in vivo, iv, 120 min) was 0.46 ± .13 % Kg Dose/g and the “Tissue concentration, Muscle” value ([2]; dog, in vivo, iv, 120 min) was 0.04 ± .00 % Kg Dose/g. For the same molecule, the “Tissue concentration, Adrenal Cortex” value ([2]; dog, in vivo, iv, 2880 min) was 0.10 ± .01 % Kg Dose/g, the “Tissue concentration, Adrenal Medulla (Mean ± S.E.M.)” value ([2]; dog, in vivo, iv, 2880 min) was 13.6 ± 1.1 % Kg Dose/g and the “Tissue concentration, Blood” value ([2]; dog, in vivo, iv, 2880 min) was 0.01 ± .00 % Kg Dose/g. For the same molecule, the “Tissue concentration, Heart” value ([2]; dog, in vivo, iv, 2880 min) was 0.06 ± .01 % Kg Dose/g, the “Tissue concentration, Liver” value ([2]; dog, in vivo, iv, 2880 min) was 0.02 ± .00 % Kg Dose/g and the “Tissue concentration, Lung” value ([2]; dog, in vivo, iv, 2880 min) was 0.03 ± .00 % Kg Dose/g. The “Tissue concentration, Muscle” value ([2]; dog, in vivo, iv, 2880 min) was 0.02 ± .00 % Kg Dose/g, the “Tissue concentration, Adrenal Cortex” value ([2]; dogs (2), i.v., 30 min, adrenal cortex) was 0.61 ± .02 % Kg Dose/g and the “Tissue concentration, Adrenal Medulla (Mean ± S.E.M.)” value ([2]; dogs (2), i.v., 30 min, adrenal medulla) was 5.35 ± .71 % Kg Dose/g. For the same molecule, the “Tissue concentration, Blood” value ([2]; dogs (2), i.v., 30 min, blood) was 0.02 ± .00 % Kg Dose/g, the “Tissue concentration, Heart” value ([2]; dogs (2), i.v., 30 min, heart) was 0.47 ± .02 % Kg Dose/g and the “Tissue concentration, Thyroid” value ([2]; dogs (2), i.v., 2 hours, thyroid) was 0.56 ± .05 % Kg Dose/g. For the same molecule, the “Tissue concentration, Thyroid” value ([2]; dogs (2), i.v., 48 hours, thyroid) was 1.27 ± .47 % Kg Dose/g, the “Tissue concentration, Blood” value [3] was “.03 ± .00 % Kg Dose/g” and the “Tissue concentration, Heart” value [3] was 1.09 ± .06 % Kg Dose/g. The “Tissue concentration, Liver” value [3] was “.36 ± .02 % Kg Dose/g”, the “Tissue concentration, Lung” value [3] was “.70 ± .06 % Kg Dose/g” and the “Tissue concentration, Muscle” value [3] was “.25 ± .02 % Kg Dose/g”. For the same molecule, the “Tissue concentration, Thyroid” value [3] was “.76 ± .04 % Kg Dose/g”.
For `N=C(N)NCc1cccc([123I])c1` [I^123 -meta-iodobenzylguanidine], the “radio-composition (decomposition) on storage” value ([4]; up to 4 days as sulfate salt in water or physiological buffered saline, I-123) was “minimal detectable radio-composition”.
For `N=C(N)NCc1cccc([131I])c1` [^131 I-mIBG, I^131 -meta-iodobenzylguanidine], the “activity seen in malignant (metastatic) PHEO” value (Pheochromocytomas (PHEO); another patient with malignant (metastatic) PHEO) was “only ill-defined activity was seen”, the “scintigrams in PHEO patients” value (Pheochromocytomas (PHEO); each of eight PHEO patients, 0.5 mCi i.v., 24, 48 and 72 hours) was “located abnormal collections of activity” and the “patients in whom abnormalities correspond to PHEOs subsequently excised” value (Pheochromocytomas (PHEO); eight PHEO patients, 0.5 mCi i.v.) was 7 of the 8. For the same molecule, the “scintigraphic image of adrenal glands in control subjects” value (Pheochromocytomas (PHEO); five hypertensive controls without PHEO, 0.5 mCi i.v., 24, 48 and 72 hours) was “little or no scintigraphic image of their adrenal glands”, the “activity seen in malignant (metastatic) PHEO” value (Pheochromocytomas (PHEO); one patient with malignant (metastatic) PHEO) was “multiple areas of activity were seen in the skull, chest and abdomen” and the “MIBG Adrenal Imaging” value (adrenal medulla; patient 1 (apparently unaffected, plasma/urine normal), 500 μCi) was “Nonvisualized”. For the same molecule, the “MIBG Adrenal Imaging” value (adrenal medulla; patient 2 (MEN 2a, plasma/urine normal), 500 μCi) was “Nonvisualized”, the “MIBG Adrenal Imaging” value (adrenal medulla; patient 3 (MEN 2a, urine M raised), 500 μCi) was “Faint bilateral” and the “MIBG Adrenal Imaging” value (adrenal medulla; patient 4 (MEN 2b, plasma N, urine NM raised), 500 μCi) was “Distinct bilateral”. The “MIBG Adrenal Imaging” value (adrenal medulla; patient 5 (MEN 2a, plasma N,E, urine E,NM,M raised), 500 μCi) was “Distinct bilateral”, the “MIBG Adrenal Imaging” value (adrenal medulla; patient 6 (MEN 2a, plasma N,E, urine E,NM,M raised), 500 μCi) was “Asymmetric bilateral” and the “scintigraphy of right adrenal gland” value (adrenal medulla; patient 6, confirmed at surgery, only irregular area on CT) was “two distinct tumors”. The “adrenal imaging, patients 1 and 2” value (adrenal medulla; patients 1 and 2, pattern recognized by control studies as normal) was “Neither patient 1 nor patient 2, who was affected with medullary thyroid carcinoma, showed adrenal imaging”, the “percent uptake by the adrenal glands versus hormone values” (adrenal medulla; remaining 4 patients (3-6), 500 μCi) was “increased proportionally to the urine and plasma hormone values” and the decomposition on storage ([4]; up to 4 days as sulfate salt in water or physiological saline, I-131) was “no detectable decomposition”.
In the case of `N=C(N)NCc1cccc(I)c1` [meta-iodobenzylguanidine, Meta-iodobenzylguanidine], the “accumulation in adrenergic tissues” value ([5]; compared with norepinephrine and guanethidine) is reported as “accumulated in adrenergic tissues in a manner similar to norepinephrine and guanethidine” and the localization ([5]; heart and adrenal medulla) is reported as “localizes in the adrenergic neurons of the heart and chromaffin granules of the adrenal medulla”.
